Common to all, as to experiment: SelectScreen Z'LYTE kinase profiling
Format in all cases: biochemical
What all share (settings): ATP at apparent KM

For one test, the target named is T1, PRKCE (PKC epsilon) (Homo sapiens, UniProt Q02156).
T1 sequence (Q02156 1-737): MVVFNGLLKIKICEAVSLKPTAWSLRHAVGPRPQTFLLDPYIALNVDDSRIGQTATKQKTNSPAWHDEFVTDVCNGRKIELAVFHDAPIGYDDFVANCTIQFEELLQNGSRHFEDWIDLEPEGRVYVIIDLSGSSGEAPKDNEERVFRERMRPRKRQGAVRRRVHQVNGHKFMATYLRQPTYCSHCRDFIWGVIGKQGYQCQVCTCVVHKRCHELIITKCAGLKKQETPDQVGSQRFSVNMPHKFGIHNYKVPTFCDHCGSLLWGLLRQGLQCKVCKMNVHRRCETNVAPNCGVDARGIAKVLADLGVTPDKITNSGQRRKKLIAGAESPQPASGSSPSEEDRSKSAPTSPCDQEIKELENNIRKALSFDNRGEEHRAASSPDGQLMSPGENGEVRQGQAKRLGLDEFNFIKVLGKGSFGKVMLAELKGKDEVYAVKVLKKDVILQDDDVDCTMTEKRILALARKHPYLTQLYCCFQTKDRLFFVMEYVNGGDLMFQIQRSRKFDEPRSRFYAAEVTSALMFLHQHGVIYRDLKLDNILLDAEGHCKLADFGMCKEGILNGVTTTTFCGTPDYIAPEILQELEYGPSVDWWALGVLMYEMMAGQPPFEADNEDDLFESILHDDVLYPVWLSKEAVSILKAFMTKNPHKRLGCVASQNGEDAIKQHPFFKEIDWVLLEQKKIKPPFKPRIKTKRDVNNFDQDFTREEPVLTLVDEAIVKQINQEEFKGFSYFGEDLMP

Another test has as its target PAK4 (Homo sapiens, UniProt O96013).
The target of another test is T2, EPHB4 (Homo sapiens, UniProt P54760).
T2 sequence (P54760 16-987): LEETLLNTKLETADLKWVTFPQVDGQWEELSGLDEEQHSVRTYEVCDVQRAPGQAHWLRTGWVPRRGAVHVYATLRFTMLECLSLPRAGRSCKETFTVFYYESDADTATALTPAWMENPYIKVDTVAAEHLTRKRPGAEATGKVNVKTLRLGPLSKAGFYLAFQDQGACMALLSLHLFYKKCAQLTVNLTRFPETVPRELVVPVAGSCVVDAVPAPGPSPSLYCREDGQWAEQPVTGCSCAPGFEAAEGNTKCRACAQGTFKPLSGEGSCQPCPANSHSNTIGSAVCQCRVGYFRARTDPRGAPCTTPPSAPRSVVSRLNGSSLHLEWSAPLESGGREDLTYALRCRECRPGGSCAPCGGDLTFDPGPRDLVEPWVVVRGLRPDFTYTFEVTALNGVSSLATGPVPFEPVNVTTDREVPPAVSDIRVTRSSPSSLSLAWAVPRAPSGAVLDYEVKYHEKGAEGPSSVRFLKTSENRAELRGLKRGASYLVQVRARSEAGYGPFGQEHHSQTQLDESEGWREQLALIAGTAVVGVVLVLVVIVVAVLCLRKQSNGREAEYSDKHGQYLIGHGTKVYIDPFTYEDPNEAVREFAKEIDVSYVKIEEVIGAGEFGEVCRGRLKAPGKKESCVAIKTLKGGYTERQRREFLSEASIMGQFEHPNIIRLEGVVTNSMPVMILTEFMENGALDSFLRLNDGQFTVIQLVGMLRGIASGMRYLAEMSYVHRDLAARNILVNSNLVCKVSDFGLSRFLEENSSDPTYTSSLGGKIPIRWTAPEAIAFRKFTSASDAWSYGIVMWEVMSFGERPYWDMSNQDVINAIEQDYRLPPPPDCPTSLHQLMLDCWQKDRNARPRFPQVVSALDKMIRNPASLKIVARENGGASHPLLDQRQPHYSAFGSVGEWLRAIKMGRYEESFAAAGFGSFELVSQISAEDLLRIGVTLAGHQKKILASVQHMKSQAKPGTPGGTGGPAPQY

The target in a further test is MAPK3 (ERK1) (Homo sapiens, UniProt P27361).
Chain of MAPK3 (ERK1) (P27361 whole entry): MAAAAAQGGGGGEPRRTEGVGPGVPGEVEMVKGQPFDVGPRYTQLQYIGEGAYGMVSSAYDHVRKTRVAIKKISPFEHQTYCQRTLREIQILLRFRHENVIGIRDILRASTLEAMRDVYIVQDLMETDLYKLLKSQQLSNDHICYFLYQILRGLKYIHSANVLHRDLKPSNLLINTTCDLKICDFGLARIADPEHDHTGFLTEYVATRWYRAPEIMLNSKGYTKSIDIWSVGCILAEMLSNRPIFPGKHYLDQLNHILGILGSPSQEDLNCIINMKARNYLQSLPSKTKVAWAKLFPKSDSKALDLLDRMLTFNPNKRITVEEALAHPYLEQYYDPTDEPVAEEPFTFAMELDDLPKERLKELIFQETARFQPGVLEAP
The target of another test is T3, NEK1 (Homo sapiens, UniProt Q96PY6).
T3 sequence (Q96PY6 1-1258): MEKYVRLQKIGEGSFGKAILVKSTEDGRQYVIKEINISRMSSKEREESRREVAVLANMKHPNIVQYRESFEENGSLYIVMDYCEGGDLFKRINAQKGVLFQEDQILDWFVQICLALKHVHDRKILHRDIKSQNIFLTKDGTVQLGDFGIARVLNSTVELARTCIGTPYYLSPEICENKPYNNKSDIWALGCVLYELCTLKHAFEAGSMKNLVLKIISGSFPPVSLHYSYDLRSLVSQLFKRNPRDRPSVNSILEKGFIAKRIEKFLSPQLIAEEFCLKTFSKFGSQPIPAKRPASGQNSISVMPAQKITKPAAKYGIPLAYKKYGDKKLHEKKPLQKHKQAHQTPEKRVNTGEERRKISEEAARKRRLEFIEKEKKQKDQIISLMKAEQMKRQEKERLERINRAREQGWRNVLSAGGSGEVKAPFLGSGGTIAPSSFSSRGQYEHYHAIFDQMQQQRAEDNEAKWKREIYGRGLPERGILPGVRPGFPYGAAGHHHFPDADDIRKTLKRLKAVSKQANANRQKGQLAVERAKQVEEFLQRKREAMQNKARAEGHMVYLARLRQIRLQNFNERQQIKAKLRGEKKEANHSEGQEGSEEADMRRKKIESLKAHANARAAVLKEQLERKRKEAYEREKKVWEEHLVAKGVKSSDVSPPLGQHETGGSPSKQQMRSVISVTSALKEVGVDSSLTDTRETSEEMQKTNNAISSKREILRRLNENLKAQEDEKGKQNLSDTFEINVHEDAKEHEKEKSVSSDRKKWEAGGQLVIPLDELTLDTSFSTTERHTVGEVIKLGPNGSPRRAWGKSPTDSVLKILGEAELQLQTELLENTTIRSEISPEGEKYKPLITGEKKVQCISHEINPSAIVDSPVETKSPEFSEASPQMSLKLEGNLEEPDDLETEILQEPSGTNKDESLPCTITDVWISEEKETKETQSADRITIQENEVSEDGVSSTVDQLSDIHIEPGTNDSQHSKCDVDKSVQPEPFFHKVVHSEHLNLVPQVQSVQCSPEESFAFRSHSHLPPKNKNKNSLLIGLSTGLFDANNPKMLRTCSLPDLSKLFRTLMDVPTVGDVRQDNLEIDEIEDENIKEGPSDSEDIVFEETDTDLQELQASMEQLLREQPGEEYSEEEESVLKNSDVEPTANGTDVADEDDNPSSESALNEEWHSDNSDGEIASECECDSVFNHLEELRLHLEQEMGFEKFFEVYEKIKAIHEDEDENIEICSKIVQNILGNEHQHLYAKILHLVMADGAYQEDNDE

As usually defined, the inhibition is the change of the read-out against control, counted positive when it falls.

Chain of PAK4 (O96013 whole entry): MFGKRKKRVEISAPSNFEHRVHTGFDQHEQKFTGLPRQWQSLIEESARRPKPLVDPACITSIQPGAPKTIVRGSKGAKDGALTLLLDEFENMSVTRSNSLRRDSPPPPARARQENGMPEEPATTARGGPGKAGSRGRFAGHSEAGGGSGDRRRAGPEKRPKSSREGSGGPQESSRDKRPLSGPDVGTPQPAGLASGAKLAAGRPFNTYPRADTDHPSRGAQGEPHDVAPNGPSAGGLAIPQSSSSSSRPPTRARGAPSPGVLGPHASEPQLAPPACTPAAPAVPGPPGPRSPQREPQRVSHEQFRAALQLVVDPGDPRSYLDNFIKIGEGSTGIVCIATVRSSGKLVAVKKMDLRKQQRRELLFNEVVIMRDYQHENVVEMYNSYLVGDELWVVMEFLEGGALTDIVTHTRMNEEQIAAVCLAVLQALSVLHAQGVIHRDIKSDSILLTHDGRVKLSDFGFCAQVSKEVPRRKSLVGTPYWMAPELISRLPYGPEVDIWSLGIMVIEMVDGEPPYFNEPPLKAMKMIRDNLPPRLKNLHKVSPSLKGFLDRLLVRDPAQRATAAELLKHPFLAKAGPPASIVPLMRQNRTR
Procedure for EPHB4: (§1) protein kinases at a compound concentration of 1 µM. Measurements were performed in duplicates
(§2) and at the particular apparent ATP KM of each individual kinase employing the activity based Z’LYTE®
(§3) kinase assay of the SelectScreen® Kinase Profiling Services (ThermoFisher Scientific).
(§4) kinases at a compound concentration of 1 µM. Measurements were performed in duplicates and at
(§5) the particular apparent ATP KM of each individual kinase employing the activity based Z’LYTE® kinase
(§6) assay of the SelectScreen® Kinase Profiling Services (ThermoFisher Scientific).
Procedure for MAPK3 (ERK1): as §1, §2, §3, §4, §5, §6
Procedure for NEK1: as §1, §2, §3, §4, §5, §6
Procedure for PAK4: as §1, §2, §3, §4, §5, §6
Procedure for PRKCE (PKC epsilon): as §1, §2, §3, §4, §5, §6

For `C=CC(=O)Nc1ccc2c(c1)n(C1CCN(Cc3ccc(-c4nc5cc[nH]c(=O)c5cc4-c4ccccc4)cc3)CC1)c(=O)n2C` [24b], the inhibition at 1 µM was 12% at PRKCE (PKC epsilon); 12% on PAK4; 4% on EPHB4; 0% at MAPK3 (ERK1); -7% on NEK1.

Consider `C=CC(=O)Nc1cccc(C(=O)NC2CCN(Cc3ccc(-c4nc5cc[nH]c(=O)c5cc4-c4ccccc4)cc3)CC2)c1` [30b], for which the inhibition at 1 µM at PRKCE (PKC epsilon) was 27%; at PAK4, 8%; at EPHB4, 1%; at MAPK3 (ERK1) it was 3%; at NEK1, -2%.

`C=CC(=O)Nc1cc(NC(=O)NC2CCN(Cc3ccc(-c4nc5cc[nH]c(=O)c5cc4-c4ccccc4)cc3)CC2)ccc1Cl` [compound 27]: the inhibition at 1 µM on PRKCE (PKC epsilon) was 11%; at PAK4, 16%; at EPHB4 it was 4%; on MAPK3 (ERK1) it was 3%; at NEK1, -1%.

The values above are taken from article PMC6430017, “Structural and chemical insights into the covalent-allosteric inhibition of the protein kinase Akt” (Chemical Science, 2019).
